SMILES strings stand for the structures.

One may read the IC50 as the point on the concentration scale where inhibition reaches its midpoint. As a reminder, the inhibition is the drop in the measured response relative to a control, in per cent.

The target in one assay is T1, Aβ1-42 (Homo sapiens, UniProt P05067).
T1 construct: Aβ1-42 peptides were purchased from Kelowna International Scientific Inc; purchased Kelowna International Scientific Inc
The assay can be described thus: Inhibition of Aβ1-42 self-aggregation, thioflavin-T (ThT) fluorescence assay. The class given is biochemical. Particulars: 24 h; for IC50: read-out: Beta-Amyloid Aggregation IC50; for inhibition at 10 µM: single concentration of 10 μM, read-out: Beta-Amyloid Aggregation Inhibition (%). The method, then:
Inhibition of Aβ1-42 self-aggregation was measured by thioflavin-T (ThT) fluorescence assay ([Hudson et al., 2009]). Aβ1-42 peptides were purchased from Kelowna International Scientific Inc. To avoid Aβ1-42 self-aggregation before the start of the experiment, Aβ1-42 peptides were dissolved in hexafluoroisopropanol (HFIP) to a concentration of 1 mM. The clear solution containing the dissolved peptide was then aliquoted in micro centrifuge tube. The solution was evaporated under vacuum to remove HFIP to give monomeric Aβ1-42. The monomeric Aβ1-42 was dissolved in NaOH(aq) (60 mM) to give a stock solution (1 mM). The Aβ1-42 stock solution was diluted with 50 mM phosphate buffer (containing 0.15 M NaCl, pH 7.4) before use. Fresh ThT stock solution was prepared by dissolving ThT (Sigma, T3516) in phosphate buffer and filtrated through […] Nylon syringe filter. The ThT stock solution and 400 mM ethylenediaminetetraacetic acid (EDTA) were diluted into the phosphate buffer to generate the working solution as background. A mixture of working solution (ThT final concentration: 10 μM), Aβ1-42 stock solution (Aβ1-42 final concentration: 10 μM) and the tested compounds were incubated on BioShake iQ ThermoMixer (37°C, 700 rpm) for 24 h. Fluorescence was measured by Victor 2X microplate spectrophotometer (excitation λ = 440 nm, emission λ = 486 nm), and adapted for 96-well microtiter plates. The fluorescence intensities were recorded and the percent inhibition due to the presence of the inhibitors were calculated by the following formula: (1 - IFi/IFc) × 100% where IFi and IFc were the fluorescence intensities obtained for Aβ1-42 in the presence and in the absence of inhibitors after subtracting the background, respectively. The IC50 values were calculated by the linear regression model of the data. All experiments were performed in triplicate.

Another assay has as its target T2, HDAC4 (Homo sapiens, UniProt P56524).
T2 construct: Genes encoding HDAC4 (residues 648–1057) flanked with NdeI and EcoRI sites; made in house; host or cells: E. coli BL21(DE3)
The experiment in a line: HDAC fluorometric activity assay, HDAC4. Particulars: Boc-Lys(TFA)-AMC 10 μM; read-out: IC50 Class IIa HDAC4. The class given is biochemical. The method, then: Proteins were expressed in BL21(DE3) cells by overnight induction with IPTG (1 mM) at 20–25°C and purified from cleared cell lysates by sequential chromatography on Ni-Sepharose 6 fast flow, Mono Q 5/50 GL, and Superdex 75 10/300 GL columns (GE Healthcare). Protein concentrations were quantified with Bradford Reagent (Bio-Rad).
Enzyme, inhibitors and substrate were diluted with HDAC buffer (15 mM Tris-HCl pH 8.1, 0.25 mM EDTA, 250 mM NaCl, 10% v:v glycerol). Briefly, 10 μL diluted HDAC, i.e., HeLa nuclear extract (Enzo), HDAC6 (BPS), HDAC4, HDAC5 (BPS), HDAC7 (BPS) and HDAC9 (BPS), as well as 50 μL of testing compounds at different concentrations were added to each well of a 96-well microtiter plate and pre-incubated at 30°C for 5 min. […] The fluorescence in wells without test compounds (0.1% DMSO, negative control) was set as 100% enzymatic activity and the fluorescence in wells with enzyme eliminated was set as 0% enzymatic activity. The fluorescence ratio of test compounds to negative control was defined as percentage of remaining enzyme activity. The IC50 values were calculated by linear regression of the data. All experiments were performed in triplicate.

Another assay deals with HDAC9 (Homo sapiens, UniProt Q9UKV0). The experiment in a line: HDAC fluorometric activity assay, HDAC9.
Chain of HDAC9 (Q9UKV0 whole entry): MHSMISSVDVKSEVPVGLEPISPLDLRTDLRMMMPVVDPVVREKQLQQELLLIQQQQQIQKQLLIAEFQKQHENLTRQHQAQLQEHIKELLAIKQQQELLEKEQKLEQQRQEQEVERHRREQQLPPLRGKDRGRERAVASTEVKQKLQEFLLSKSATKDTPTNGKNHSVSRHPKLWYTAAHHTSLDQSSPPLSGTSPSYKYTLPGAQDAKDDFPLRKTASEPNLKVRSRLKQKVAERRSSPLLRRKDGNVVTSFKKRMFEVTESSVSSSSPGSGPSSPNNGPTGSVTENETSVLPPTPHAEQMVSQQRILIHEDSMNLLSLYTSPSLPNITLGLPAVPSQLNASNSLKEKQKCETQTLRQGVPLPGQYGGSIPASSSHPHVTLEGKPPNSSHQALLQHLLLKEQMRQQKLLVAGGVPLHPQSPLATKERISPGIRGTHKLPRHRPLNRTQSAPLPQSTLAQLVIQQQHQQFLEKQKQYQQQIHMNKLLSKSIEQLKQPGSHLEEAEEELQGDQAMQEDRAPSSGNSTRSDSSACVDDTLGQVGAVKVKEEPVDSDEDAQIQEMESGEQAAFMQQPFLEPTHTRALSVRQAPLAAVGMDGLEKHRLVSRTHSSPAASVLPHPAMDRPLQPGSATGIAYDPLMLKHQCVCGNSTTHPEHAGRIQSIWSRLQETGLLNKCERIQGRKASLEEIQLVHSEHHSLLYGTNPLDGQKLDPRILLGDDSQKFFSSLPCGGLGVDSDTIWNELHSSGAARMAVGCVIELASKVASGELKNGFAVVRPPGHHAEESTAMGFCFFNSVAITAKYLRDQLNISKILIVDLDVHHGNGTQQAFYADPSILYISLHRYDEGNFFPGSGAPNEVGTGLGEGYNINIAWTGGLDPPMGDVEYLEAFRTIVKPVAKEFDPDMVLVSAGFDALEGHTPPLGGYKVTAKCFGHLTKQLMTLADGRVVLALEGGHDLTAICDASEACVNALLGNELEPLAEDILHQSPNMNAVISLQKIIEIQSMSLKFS

T1 sequence (P05067 672-713 limits assumed): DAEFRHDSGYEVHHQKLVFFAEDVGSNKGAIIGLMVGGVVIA
T2 sequence (P56524 648-1057): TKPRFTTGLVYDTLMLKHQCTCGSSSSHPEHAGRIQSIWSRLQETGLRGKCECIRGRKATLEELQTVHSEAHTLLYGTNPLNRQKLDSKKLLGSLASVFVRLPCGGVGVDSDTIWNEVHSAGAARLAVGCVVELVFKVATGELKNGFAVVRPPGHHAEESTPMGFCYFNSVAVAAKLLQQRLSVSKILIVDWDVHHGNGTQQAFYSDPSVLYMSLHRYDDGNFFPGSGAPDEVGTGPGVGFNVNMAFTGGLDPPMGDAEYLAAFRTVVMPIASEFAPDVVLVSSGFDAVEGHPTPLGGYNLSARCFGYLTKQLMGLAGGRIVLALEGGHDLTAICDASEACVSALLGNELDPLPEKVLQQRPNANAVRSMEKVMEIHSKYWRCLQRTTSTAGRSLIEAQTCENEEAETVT

As for `O=C(/C=C/c1ccccc1)CCCCc1ccccc1` [Compound 4a], the figures for the IC50 at Aβ1-42, on HDAC4 and against HDAC9 were more than 10 µM, more than 40 µM and more than 40 µM, respectively. Besides, at Aβ1-42, the inhibition at 10 µM stood at 11.9 ± 1%.
For the compound `O=C(/C=C/c1ccc(O)cc1)CCCCc1ccccc1` [Compound 4b], the concentration for half-maximal inhibition (IC50) was more than 10 µM on Aβ1-42, more than 40 µM at HDAC4 and more than 40 µM against HDAC9. Further, the inhibition at 10 µM on Aβ1-42 stood at 28.7 ± 6.3%.
As for `O=C(/C=C/c1ccc(O)c(O)c1)CCCCc1ccccc1` [Compound 4c], the half-maximal inhibitory concentration (IC50) worked out at 6.1 ± 1.3 µM at Aβ1-42, 30.5 ± 0.7 µM on HDAC4 and 17.6 ± 0.3 µM on HDAC9. In addition, at Aβ1-42, the inhibition at 10 µM turned out to be 76.2 ± 2.7%.
For `O=C(/C=C/c1cccc(O)c1)CCCCc1ccccc1` [Compound 4d] the same measures were more than 10 µM, more than 40 µM, more than 40 µM and 0.7 ± 1.5%.
For `O=C(/C=C/c1cccc(O)c1O)CCCCc1ccccc1` [Compound 4e] the same measures were 3.4 ± 0.6 µM, 38.8 ± 0.1 µM, 18.1 ± 0.4 µM and 91.7 ± 2.5%.
For `O=C(/C=C/c1ccc(O)c(F)c1)CCCCc1ccccc1` [Compound 4f] the same measures were more than 10 µM, more than 40 µM, more than 40 µM and 34.9 ± 9.2%.
In the case of `O=C(/C=C/c1ccc(O)c(Cl)c1)CCCCc1ccccc1` [Compound 4g], the values for the IC50 on Aβ1-42, on HDAC4 and on HDAC9 were more than 10 µM, more than 40 µM and more than 40 µM, respectively. Also, the inhibition at 10 µM on Aβ1-42 was determined as 27.8 ± 7.1%.
Regarding `O=C(/C=C/c1ccc(O)c(Br)c1)CCCCc1ccccc1` [Compound 4h], the IC50 at Aβ1-42 is more than 10 µM; on HDAC4, more than 40 µM; against HDAC9, more than 40 µM. Moreover, the inhibition at 10 µM on Aβ1-42 stood at 28.1 ± 2.1%.
Regarding `O=C(/C=C/c1ccc(O)c([N+](=O)[O-])c1)CCCCc1ccccc1` [Compound 4i], the IC50 is more than 10 µM at Aβ1-42, more than 40 µM at HDAC4 and more than 40 µM against HDAC9. Besides, on Aβ1-42, the inhibition at 10 µM stood at 49 ± 2.9%.
As for `COc1cc(/C=C/C(=O)CCCCc2ccccc2)ccc1O` [Compound 4k], the IC50 on Aβ1-42 is more than 10 µM; on HDAC4, more than 40 µM; on HDAC9 it was more than 40 µM. At Aβ1-42, the inhibition at 10 µM was determined as 23.1 ± 6.4%.
For `O=C(CCCCc1ccccc1)CCc1ccccc1` [Compound 5a], the IC50 is more than 10 µM at Aβ1-42, more than 40 µM at HDAC4 and more than 40 µM on HDAC9. Besides, the inhibition at 10 µM at Aβ1-42 came out at 14 ± 3%.
As to `O=C(CCCCc1ccccc1)CCc1ccc(O)cc1` [Compound 5b], the figures for the half-inhibitory concentration (IC50) on Aβ1-42, at HDAC4 and against HDAC9 were more than 10 µM, more than 40 µM and more than 40 µM, respectively. Further, the inhibition at 10 µM on Aβ1-42 turned out to be 30.4 ± 1%.
As to `O=C(CCCCc1ccccc1)CCc1cccc(O)c1` [Compound 5d], the figures for the IC50 at Aβ1-42, on HDAC4 and against HDAC9 were more than 10 µM, more than 40 µM and more than 40 µM, respectively. Besides, on Aβ1-42, the inhibition at 10 µM was -22.1 ± 2%.
As to `O=C(CCCCc1ccccc1)CCc1ccc(O)c(F)c1` [Compound 5f], the results for the half-maximal inhibitory concentration (IC50) on Aβ1-42, on HDAC4 and against HDAC9 were more than 10 µM, more than 40 µM and more than 40 µM, respectively. For the same compound, the inhibition at 10 µM on Aβ1-42 amounted to 22.1 ± 11.1%.
Take `O=C(CCCCc1ccccc1)CCc1ccc(O)c(Cl)c1` [Compound 5g]: the IC50 at Aβ1-42 is more than 10 µM; at HDAC4, 29.9 ± 2.3 µM; on HDAC9, more than 40 µM. In addition, the inhibition at 10 µM on Aβ1-42 is 17.8 ± 2.8%.
For `O=C(CCCCc1ccccc1)CCc1ccc(O)c(Br)c1` [Compound 5h] the same measures were more than 10 µM, more than 40 µM, more than 40 µM and 1 ± 3%.
For `COc1cc(CCC(=O)CCCCc2ccccc2)ccc1O` [Compound 5i] the same measures were more than 10 µM, more than 40 µM, more than 40 µM and 4.6 ± 11.7%.
The corresponding values for `O=C(/C=C/c1ccc(O)c(O)c1)c1ccccc1` [Compound 7a] are 2.3 ± 0.2 µM, 31.1 ± 0.8 µM, 18.4 ± 0.6 µM and 83.1 ± 1.9%.
As for `O=C(/C=C/c1ccc(O)c(O)c1)Cc1ccccc1` [Compound 7b], the figures for the concentration for half-maximal inhibition (IC50) at Aβ1-42, on HDAC4 and at HDAC9 were 2.1 ± 0.2 µM, 39.8 ± 0.2 µM and 29.2 ± 1.7 µM, respectively. The inhibition at 10 µM at Aβ1-42 turned out to be 79.4 ± 2.6%.
For the compound `O=C(/C=C/c1ccc(O)c(O)c1)CCc1ccccc1` [Compound 7c], the IC50 at Aβ1-42 is 3.4 ± 0.4 µM; on HDAC4, 38.3 µM; against HDAC9 it was 36.8 ± 0.7 µM. In addition, the inhibition at 10 µM at Aβ1-42 was found to be 83.7 ± 0.8%.
In the case of `O=C(/C=C/c1ccc(O)c(O)c1)CCCc1ccccc1` [Compound 7d], the concentration for half-maximal inhibition (IC50) at Aβ1-42 was 3.1 ± 0.3 µM; on HDAC4, 35 ± 2.8 µM; against HDAC9, 17.3 ± 0.1 µM. Further, the inhibition at 10 µM on Aβ1-42 was 74 ± 9.5%.
For `O=C(CCc1ccc(O)c(O)c1)c1ccccc1` [Compound 8a] the same measures were 8.6 ± 1.1 µM, more than 40 µM, 14.2 ± 1.6 µM and 66.4 ± 1%.
The corresponding values for `O=C(CCc1ccc(O)c(O)c1)Cc1ccccc1` [Compound 8b] are 8.1 ± 1.2 µM, more than 40 µM, 37.1 ± 0.9 µM and 68.6 ± 4.1%.
With `O=C(CCc1ccccc1)CCc1ccc(O)c(O)c1` [Compound 8c], the IC50 was 8 ± 1.6 µM at Aβ1-42, more than 40 µM on HDAC4 and 33.8 ± 3.8 µM at HDAC9. Also, on Aβ1-42, the inhibition at 10 µM was found to be 71.3 ± 3.8%.
For `O=C(CCCc1ccccc1)CCc1ccc(O)c(O)c1` [Compound 8d] the same measures were 8.5 ± 0.2 µM, more than 40 µM, 17.3 ± 3.2 µM and 59 ± 5.8%.

For the origin of these results see article PMC6037852, “Design of Diarylheptanoid Derivatives as Dual Inhibitors Against Class IIa Histone Deacetylase and β-amyloid Aggregation” (Frontiers in Pharmacology, 2018).
